Test results published in DBAASP.
Values after ≈ are worked out from the molar mass of the structure shown. Values joined by “and” are separate entries in the source; they are usually repeats but may differ in a detail not shown here. Equal values may be shown once.

Legend:
Assay in all cases: ≥ marks a high value that may be exact or a test limit, other limits are often not marked, values filed in µg/mL are converted to µM
[1] = test system: Pseudomonas aeruginosa ATCC 27853
Escherichia coli = test system: Escherichia coli
[2] = test system: Salmonella enterica subsp. enterica serovar Typhimurium ATCC 14028
[3] = test system: Enterococcus faecalis ATCC 29212
[4] = test system: Streptococcus pyogenes ATCC 19615
[5] = test system: Staphylococcus aureus ATCC 25923
[6] = test system: Klebsiella pneumoniae ATCC 13883
Bacillus subtilis = test system: Bacillus subtilis
[7] = test system: Pseudomonas syringae pv. syringae DSM 10604
[8] = test system: Clavibacter michiganensis subsp. michiganensis DSM 46294
[9] = test system: Pseudomonas corrugata DSM 7228
[10] = test system: Xanthomonas vesicatoria DSM 50861
[11] = test system: Pseudomonas syringae pv. tomato DC3000
[12] = test system: Pectobacterium carotovorum subsp. carotovorum DSM 30168
[13] = test system: Staphylococcus aureus ATCC BAA-1556
[14] = test system: Escherichia coli ATCC 25922
[15] = test system: Staphylococcus epidermidis KCTC 1917
[16] = test system: Pseudomonas aeruginosa ATCC 15422
[17] = test system: Candida albicans ATCC 10231
[18] = test system: Bacillus subtilis ATCC 6633
[19] = test system: Escherichia coli DH5alpha
[20] = test system: Staphylococcus aureus ATCC 9144
[21] = test system: Escherichia coli ATCC 10536
[22] = test system: Acinetobacter calcoaceticus
[23] = test system: Staphylococcus aureus ATCC 2592
[24] = test system: Candida albicans ATCC 2002
Pseudomonas aeruginosa = test system: Pseudomonas aeruginosa
Shigella dysenteriae = test system: Shigella dysenteriae
[25] = test system: Staphylococcus aureus NCTC 10788
[26] = test system: Staphylococcus aureus USA 100
[27] = test system: Candida albicans ATCC 90028
[28] = test system: Pseudomonas aeruginosa ATCC 9027
[29] = test system: Staphylococcus aureus USA 300

Compound: CC(C)C[C@H](NC(=O)[C@H](CO)NC(=O)[C@H](CCCN=C(N)N)NC(=O)[C@H](CCCCN)NC(=O)[C@@H](NC(=O)[C@@H](NC(=O)CNC(=O)[C@H](CCCN=C(N)N)NC(=O)[C@H](Cc1cnc[nH]1)NC(=O)[C@H](Cc1c[nH]c2ccccc12)NC(=O)[C@H](Cc1ccccc1)NC(=O)[C@H](Cc1cnc[nH]1)NC(=O)[C@H](Cc1ccc(O)cc1)NC(=O)[C@@H](N)Cc1ccc(O)cc1)C(C)C)[C@@H](C)O)C(=O)O [YYHFWHRGVTKRSL]
- MIC [1]: 60 µM (≈ 111 µg/mL)
- MIC (Escherichia coli): 30 µM (≈ 55.5 µg/mL)
- MIC [2]: 80 µM (≈ 148 µg/mL)
- MIC [3]: 70 µM (≈ 130 µg/mL)
- MIC [4]: ≥ 100 µM
- MIC [5]: 80 µM (≈ 148 µg/mL)
- MIC [6]: ≥ 70 µM
- MIC (Bacillus subtilis): ≥ 60 µM

Compound: CC[C@H](C)[C@H](NC(=O)[C@H](CCCCN)NC(=O)[C@H](Cc1ccccc1)NC(=O)[C@H](CCCCN)NC(=O)[C@H](CCCCN)NC(=O)[C@H](CCCCN)NC(=O)[C@@H](N)CCCN=C(N)N)C(=O)N[C@@H](Cc1ccccc1)C(=O)N[C@@H](CCCCN)C(=O)N[C@@H](CCCN=C(N)N)C(=O)N[C@@H](CC(C)C)C(=O)N[C@@H](Cc1ccccc1)C(N)=O [RKKKFKIFKRLF]
- MIC [7]: 0.061 µM (≈ 0.0999 µg/mL)
- MIC [8]: 0.61 µM (≈ 0.999 µg/mL)
- MIC [9]: 0.305 µM (≈ 0.5 µg/mL)
- MIC [10]: 0.61 µM (≈ 0.999 µg/mL)
- MIC [11]: 0.61 µM (≈ 0.999 µg/mL)
- MIC [12]: 6.1 µM (≈ 9.99 µg/mL)

Compound: NCCCC[C@H](N)C(=O)N[C@@H](Cc1c[nH]c2ccccc12)C(=O)N[C@@H](CCCN=C(N)N)C(=O)N[C@@H](CCCN=C(N)N)C(=O)N[C@@H](Cc1c[nH]c2ccccc12)C(N)=O [KWRRW]
- MIC [13]: ≥ 100 µM

Compound: CC(C)C[C@H](NC(=O)[C@H](CC(C)C)NC(=O)[C@H](CCCCN)NC(=O)[C@@H](N)CCCCN)C(=O)N[C@@H](CCCCN)C(=O)N[C@@H](Cc1c[nH]c2ccccc12)C(N)=O [KKLLKW]
- MIC [13]: ≥ 100 µM

Compound: CC(C)C[C@H](NC(=O)CNC(=O)[C@H](Cc1ccc(O)cc1)NC(=O)[C@H](Cc1cnc[nH]1)NC(=O)[C@@H]1CCCN1C(=O)[C@H](CC(C)C)NC(=O)[C@H](CCC(=O)O)NC(=O)[C@H](Cc1ccccc1)NC(=O)[C@H](Cc1cnc[nH]1)NC(=O)[C@H](CO)NC(=O)[C@@H](N)CCCCN)C(=O)O [KSHFELPHYGL]
- MIC [14]: > 500 µM
- MIC [15]: ≥ 315 µM
- MIC [16]: ≥ 500 µM
- MIC [3]: 468 µM and 458 µM and 442 µM
- MIC [17]: > 500 µM

Compound: CC(C)C[C@H](NC(=O)[C@H](CC(C)C)NC(=O)[C@H](CCCCN)NC(=O)[C@H](CC(C)C)NC(=O)[C@H](CC(C)C)NC(=O)[C@H](Cc1c[nH]c2ccccc12)NC(=O)[C@H](CCCCN)NC(=O)[C@H](CC(C)C)NC(=O)[C@@H](N)CC(C)C)C(N)=O [LLKWLLKLL]
- MIC [13]: 3.13 µM (≈ 3.56 µg/mL)

Compound: CC[C@H](C)[C@H](NC(=O)[C@H](CCCN=C(N)N)NC(=O)[C@@H](NC(=O)[C@@H](NC(=O)[C@@H]1CCCN1C(=O)[C@@H](NC(=O)[C@@H](NC(=O)[C@@H](NC(=O)[C@@H]1CCCN1C(=O)CNC(=O)[C@H](Cc1ccc(O)cc1)NC(=O)[C@H](CCCCN)NC(=O)[C@H](CCCCN)NC(=O)[C@H](Cc1c[nH]c2ccccc12)NC(=O)[C@H](C)NC(=O)[C@H](CCCN=C(N)N)NC(=O)[C@H](CC(C)C)NC(=O)[C@H](C)NC(=O)[C@H](CCCCN)NC(=O)[C@H](CCCN=C(N)N)NC(=O)CNC(=O)[C@H](CC(C)C)NC(=O)[C@H](CO)NC(=O)[C@H](CCCN=C(N)N)NC(=O)[C@H](C)NC(=O)CNC(=O)CN)[C@@H](C)CC)[C@@H](C)CC)C(C)C)[C@@H](C)CC)[C@@H](C)CC)C(N)=O [GGARSLGRKALRAWKKYGPIIVPIIRI]
- MIC [18]: 1.5 µM (≈ 4.48 µg/mL)
- MIC [19]: 2.7 µM (≈ 8.07 µg/mL)
- MIC [20]: 3.8 µM (≈ 11.4 µg/mL)
- MIC [21]: 2.5 µM (≈ 7.47 µg/mL)

Compound: CC[C@H](C)[C@H](NC(=O)[C@@H]1CCCN1C(=O)[C@H](Cc1ccccc1)NC(=O)[C@@H](N)Cc1ccccc1)C(=O)N[C@H](C(=O)NCC(=O)N[C@@H](CCCCN)C(=O)N[C@@H](CC(C)C)C(=O)N[C@@H](CC(C)C)C(=O)N[C@@H](CO)C(N)=O)C(C)C [FFPIVGKLLS]
- MIC [14]: 26.8 µM (≈ 30 µg/mL)
- MIC [22]: ≥ 66.9 µM
- MIC [23]: 13.4 µM (≈ 15 µg/mL)
- MIC [24]: 13.4 µM (≈ 15 µg/mL)
- MIC (Pseudomonas aeruginosa): 22.3 µM (≈ 25 µg/mL)
- MIC (Shigella dysenteriae): ≥ 53.6 µM

Compound: CC[C@H](C)[C@H](NC(=O)[C@H](CC(C)C)NC(=O)CNC(=O)[C@H](CC(C)C)NC(=O)[C@@H](N)Cc1ccccc1)C(=O)NCC(=O)N[C@@H](CO)C(=O)N[C@@H](CC(C)C)C(=O)N[C@@H](CC(C)C)C(N)=O [FLGLIGSLL]
- MIC [25]: ≥ 137 µM

Compound: CC(C)C[C@H](NC(=O)[C@H](CC(C)C)NC(=O)[C@H](CCCCN)NC(=O)[C@H](CC(C)C)NC(=O)[C@H](CC(C)C)NC(=O)[C@H](CCCCN)NC(=O)[C@H](CC(C)C)NC(=O)[C@H](CC(C)C)NC(=O)[C@@H](N)CC(C)C)C(N)=O [LLLKLLKLL]
- MIC [13]: 3.13 µM (≈ 3.34 µg/mL)

Compound: CC[C@H](C)[C@H](NC(=O)[C@H](CCCN=C(N)N)NC(=O)[C@@H](NC(=O)[C@@H](NC(=O)[C@@H]1CCCN1C(=O)[C@@H](NC(=O)[C@@H](NC(=O)[C@H](C)NC(=O)[C@@H]1CCCN1C(=O)CNC(=O)[C@H](Cc1ccc(O)cc1)NC(=O)[C@H](CCCCN)NC(=O)[C@H](CCCCN)NC(=O)[C@H](Cc1c[nH]c2ccccc12)NC(=O)[C@H](C)NC(=O)[C@H](CCCN=C(N)N)NC(=O)[C@H](CC(C)C)NC(=O)[C@H](C)NC(=O)[C@H](CCCCN)NC(=O)[C@H](CCCN=C(N)N)NC(=O)CNC(=O)[C@H](CC(C)C)NC(=O)[C@H](CO)NC(=O)[C@H](CCCN=C(N)N)NC(=O)[C@H](C)NC(=O)CNC(=O)CN)[C@@H](C)CC)C(C)C)[C@@H](C)CC)[C@@H](C)CC)C(N)=O [GGARSLGRKALRAWKKYGPAIVPIIRI]
- MIC [18]: 1.7 µM (≈ 5.01 µg/mL)
- MIC [19]: 2.6 µM (≈ 7.66 µg/mL)
- MIC [20]: 3.9 µM (≈ 11.5 µg/mL)
- MIC [21]: 2.6 µM (≈ 7.66 µg/mL)

Compound: CSCC[C@H](NC(=O)[C@H](Cc1cnc[nH]1)NC(=O)[C@H](CCCCN)NC(=O)[C@H](CC(C)C)NC(=O)[C@H](CCCCN)NC(=O)[C@@H](N)CCCN=C(N)N)C(=O)N[C@@H](CCCN=C(N)N)C(=O)N[C@@H](Cc1ccccc1)C(=O)O [RKLKHMRF]
- MIC [26]: ≥ 100 µM
- MIC [27]: ≥ 100 µM
- MIC [28]: > 100 µM
- MIC [29]: ≥ 100 µM

Compound: NC(=O)CC[C@H](NC(=O)[C@H](CCCN=C(N)N)NC(=O)[C@@H](N)CCC(N)=O)C(=O)N[C@@H](CCCN=C(N)N)C(N)=O [QRQR]
- MIC [26]: ≥ 100 µM

Compound: CC[C@H](C)[C@H](NC(=O)[C@H](C)NC(=O)[C@H](CCCCN)NC(=O)[C@H](CCCN=C(N)N)NC(=O)[C@H](CCCN=C(N)N)NC(=O)[C@@H](N)CCCCN)C(=O)N[C@@H](CCCCN)C(=O)N[C@H](C(=O)N[C@@H](CC(C)C)C(=O)N[C@@H](CCCCN)C(=O)N[C@@H](CC(C)C)C(=O)N[C@H](C(=O)N[C@@H](C)C(=O)N[C@@H](CCCCN)C(=O)N[C@@H](CC(C)C)C(=O)N[C@H](C(=O)N[C@@H](CCCN=C(N)N)C(=O)N[C@@H](CCCCN)C(=O)N[C@@H](CCCCN)C(=O)N[C@@H](CCCN=C(N)N)C(N)=O)[C@@H](C)CC)[C@@H](C)CC)[C@@H](C)CC [KRRKAIKILKLIAKLIRKKR]
- MIC [7]: 4.04 µM (≈ 10 µg/mL)
- MIC [8]: 0.0404 µM (≈ 0.0999 µg/mL)
- MIC [9]: 0.101 µM (≈ 0.25 µg/mL)
- MIC [10]: 0.0404 µM (≈ 0.0999 µg/mL)
- MIC [11]: 4.04 µM (≈ 10 µg/mL)
- MIC [12]: 4.04 µM (≈ 10 µg/mL)
